From patent publication US20010041745A1, “Methods for increasing levels of acetylcholine” (priority 1999, published 2001)
Where a name gives a salt, the structure may show the parent alone.

How the values were obtained:
[1] = system: choline acetyltransferase (ChAT); assay: ChAT activity in hippocampus and frontal cortex homogenates of ovariectomized (OVX) rats, radio-labelled assay of acetylcholine bio-synthesis; format: in vivo, female Sprague-Dawley rats; conditions: dosed daily s.c. or oral gavage for 10 days; for levels of ChAT, difference from the sham controls: same doses as E1; for levels of ChAT versus the OVX controls: tamoxifen 3 or 10 mg/kg/day, raloxifene hydrochloride 3 mg/kg/day, estradiol benzoate 0.03 or 0.3 mg/kg/day
Protocol: Forty female Sprague-Dawley rats (weight range of 300 to 325 g, six months old) are obtained from Harlan. The animals are either bilaterally ovariectomized (OVX) or exposed to a Sham surgical procedure, and then shipped after about one week. Upon arrival, they are housed in metal hanging cages in groups of 3 or 4 per cage and have ad libitum access to food and water for one week. Room temperature is maintained at 22.20±1.7° C. with a minimum relative humidity of 40%. The photoperiod in the room is 12 hours light and 12 hours dark.
The animals are dosed daily by subcutaneous injection or oral gavage with either tamoxifen, at 3 mg/kg/day or 10 mg/kg/day in a vehicle containing 10% cyclodextrin, raloxifene hydrochloride, at 3 mg/kg/day in a vehicle containing 10% cyclodextrin, estradiol benzoate at 0.03 or 0.3 mg/kg/day, or vehicle control. Animals were treated for 10 days. There are twenty animals per each dosing regimen. At the appropriate time intervals, the animals are sacrificed and their brains dissected. The particular portions of the brains are homogenized and assayed. Homogenates from the hippocampus and frontal cortex were processed and determination of ChAT activity was made by a radio-labelled assay of the bio-synthesis of acetylcholine. This procedure may be found in Schoepp et al., J. Neural Transmiss., 78:183-193, 1989, the teachings of which are incorporated by reference.

[2] = Prophylactic use: cognitive and memory function by standard tests in peri- or post-menopausal women; format: in vivo, human; conditions: 20 mg/day, oral, 1-5 years
Protocol: The methods of the present invention may also be employed in a prophylactic modality. […] Following the establishment of this baseline, the women are administered tamoxifen at 20 mg/day, via the oral route, for a period 1-5 years.

[3] = Amelioration of Alzheimer's disease in post-menopausal women after chronic administration; format: in vivo, human; conditions: post-menopausal women with Alzheimer's disease; 20 mg per day, oral, 2-12 months
Text: Thus, the current invention provides methods for the treatment and prophylaxis of syndromes related to the loss of memory, learning, and cognitive function, often seen in women who are estrogen deprived, especially post-menopausal women. An example of such a syndrome is senile dementia of the Alzheimer's type. Beneficial effects, such as a decrease in memory loss, associated with administration of a compound of this invention become apparent after chronic administration.

ChAT = conditions: rats; literature (Luine et al. 1980, Luine 1985, Singh et al. 1994); cited from earlier work

Compound	levels of ChAT, difference from the sham controls [1]	levels of ChAT versus the OVX controls [1]	cognitive and memory functions relative to matched patients given placebo [2]	effect on Alzheimer's disease [3]	level of acetylcholine / ChAT in the hippocampus (ChAT)
C[C@]12CC[C@@H]3c4ccc(OC(=O)c5ccccc5)cc4CC[C@H]3[C@@H]1CC[C@@H]2O [estradiol benzoate]	insignificant difference	significantly (p<0.01) increased levels of ChAT	–	–	–
O=C(c1ccc(OCCN2CCCCC2)cc1)c1c(-c2ccc(O)cc2)sc2cc(O)ccc12 [raloxifene hydrochloride]	insignificant difference	significantly (p<0.01) increased levels of ChAT	–	–	–
CC/C(=C(\c1ccccc1)c1ccc(OCCN(C)C)cc1)c1ccccc1 [tamoxifen]	insignificant difference	significantly (p<0.05) increased levels of ChAT	decrease in loss of these functions	amelioration of their disease	–
estrogen	–	–	–	–	increases the level of acetylcholine by up-regulating ChAT
